What was measured:
[1] = tested on: SK-GT-4 (Esophageal Adenocarcinoma); experiment: combination Emax (second highest fraction inhibited in the dose matrix, 72 h); higher = more inhibition; extreme values may be limits of the assay
How it was run: (§1)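 Bliss excess equals the observed combination effect minus the expected value EA + EB − EA·EB, where EA and EB are the effects of each agent alone. Combination Emax is the second-highest inhibition within the matrix. Inhibition was scaled from CellTiter-Glo 2.0 luminescence, with 0 set by vehicle wells and 1 by blank wells, after 72 hours of two-drug dosing of cells plated in 1536-well plates.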

[2] = tested on: VMRC-RCZ (Kidney Carcinoma); experiment: as above
How it was run: as §1

[3] = tested on: MOG-G-CCM (Low Grade Glioma); experiment: as above
How it was run: as §1

[4] = tested on: KYSE-270 (Esophageal Squamous Cell Carcinoma); experiment: as above
How it was run: as §1

[5] = tested on: NCI-H3122 (Lung Adenocarcinoma); experiment: as above
How it was run: as §1

[6] = tested on: COR-L279 (Small Cell Lung Carcinoma); experiment: as above
How it was run: as §1

[7] = tested on: NCCIT (Other Solid Carcinomas); experiment: as above
How it was run: as §1

[8] = tested on: CW-2 (Colorectal Carcinoma); experiment: as above
How it was run: as §1

[9] = tested on: KU812 (Chronic Myelogenous Leukemia); experiment: as above
How it was run: as §1

[10] = tested on: NCI-H520 (Squamous Cell Lung Carcinoma); experiment: as above
How it was run: as §1

[11] = tested on: T-T (Esophageal Squamous Cell Carcinoma); experiment: as above
How it was run: as §1

M059J (Glioblastoma) [12] = experiment: as above
How it was run: as §1

[13] = tested on: ST486 (Burkitt's Lymphoma); experiment: as above
How it was run: as §1

[14] = tested on: NCI-H929 (Plasma Cell Myeloma); experiment: as above
How it was run: as §1

[15] = tested on: MN-60 (B-Lymphoblastic Leukemia); experiment: as above
How it was run: as §1

[16] = tested on: NCI-H526 (Small Cell Lung Carcinoma); experiment: as above
How it was run: as §1

[17] = tested on: OCI-AML3 (Acute Myeloid Leukemia); experiment: as above
How it was run: as §1

[18] = tested on: DMS-114 (Small Cell Lung Carcinoma); experiment: as above
How it was run: as §1

NCI-H2731 (Mesothelioma) [19] = experiment: as above
How it was run: as §1

SJSA-1 (Osteosarcoma) [20] = experiment: as above
How it was run: as §1

[21] = tested on: SK-GT-4 (Esophageal Adenocarcinoma); experiment: Bliss excess, mean over the matrix (fraction); higher = more synergy
How it was run: as §1

[22] = tested on: VMRC-RCZ (Kidney Carcinoma); experiment: as above
How it was run: as §1

[23] = tested on: MOG-G-CCM (Low Grade Glioma); experiment: as above
How it was run: as §1

[24] = tested on: KYSE-270 (Esophageal Squamous Cell Carcinoma); experiment: as above
How it was run: as §1

[25] = tested on: NCI-H3122 (Lung Adenocarcinoma); experiment: as above
How it was run: as §1

[26] = tested on: COR-L279 (Small Cell Lung Carcinoma); experiment: as above
How it was run: as §1

[27] = tested on: NCCIT (Other Solid Carcinomas); experiment: as above
How it was run: as §1

[28] = tested on: CW-2 (Colorectal Carcinoma); experiment: as above
How it was run: as §1

[29] = tested on: KU812 (Chronic Myelogenous Leukemia); experiment: as above
How it was run: as §1

[30] = tested on: NCI-H520 (Squamous Cell Lung Carcinoma); experiment: as above
How it was run: as §1

[31] = tested on: T-T (Esophageal Squamous Cell Carcinoma); experiment: as above
How it was run: as §1

M059J (Glioblastoma) [32] = experiment: as above
How it was run: as §1

[33] = tested on: ST486 (Burkitt's Lymphoma); experiment: as above
How it was run: as §1

[34] = tested on: NCI-H929 (Plasma Cell Myeloma); experiment: as above
How it was run: as §1

[35] = tested on: MN-60 (B-Lymphoblastic Leukemia); experiment: as above
How it was run: as §1

[36] = tested on: NCI-H526 (Small Cell Lung Carcinoma); experiment: as above
How it was run: as §1

[37] = tested on: OCI-AML3 (Acute Myeloid Leukemia); experiment: as above
How it was run: as §1

[38] = tested on: DMS-114 (Small Cell Lung Carcinoma); experiment: as above
How it was run: as §1

NCI-H2731 (Mesothelioma) [39] = experiment: as above
How it was run: as §1

SJSA-1 (Osteosarcoma) [40] = experiment: as above
How it was run: as §1

Compound | combination Emax [1] | combination Emax [2] | combination Emax [3] | combination Emax [4] | combination Emax [5] | combination Emax [6] | combination Emax [7] | combination Emax [8] | combination Emax [9] | combination Emax [10] | combination Emax [11] | combination Emax (M059J (Glioblastoma) [12]) | combination Emax [13] | combination Emax [14] | combination Emax [15] | combination Emax [16] | combination Emax [17] | combination Emax [18] | combination Emax (NCI-H2731 (Mesothelioma) [19]) | combination Emax (SJSA-1 (Osteosarcoma) [20]) | Bliss excess [21] | Bliss excess [22] | Bliss excess [23] | Bliss excess [24] | Bliss excess [25] | Bliss excess [26] | Bliss excess [27] | Bliss excess [28] | Bliss excess [29] | Bliss excess [30] | Bliss excess [31] | Bliss excess (M059J (Glioblastoma) [32]) | Bliss excess [33] | Bliss excess [34] | Bliss excess [35] | Bliss excess [36] | Bliss excess [37] | Bliss excess [38] | Bliss excess (NCI-H2731 (Mesothelioma) [39]) | Bliss excess (SJSA-1 (Osteosarcoma) [40])
C=CCn1c(=O)c2cnc(Nc3ccc(N4CCN(C)CC4)cc3)nc2n1-c1cccc(C(C)(C)O)n1 [AZD1775] + Nc1ccn([C@@H]2O[C@H](CO)[C@@H](O)C2(F)F)c(=O)n1 [Gemcitabine] (first compound max 1 µM, partner max 0.3 µM) | 0.44 | 0.481 | 0.778 | 0.983 | 0.803 | 0.987 | 0.899 | 0.559 | 0.836 | 0.871 | 0.521 | 0.802 | 0.985 | 0.906 | 0.653 | 0.968 | 0.95 | 0.643 | 0.533 | 0.656 | 0.006 | 0.0417 | 0.0455 | 0.0411 | -0.0379 | 0.0556 | 0.0864 | -0.0511 | -0.0107 | 0.0314 | 0.0692 | 0.0175 | 0.0019 | 0.0302 | -0.0157 | 0.0642 | 0.0084 | 0.0581 | 0.0305 | -0.0822
CN(CCO)CC[C@H](CSc1ccccc1)Nc1ccc(S(=O)(=O)NC(=O)c2ccc(N3CCC([C@@H](O)c4ccccc4-c4ccc(Cl)cc4)CC3)cc2)cc1S(=O)(=O)C(F)(F)F [AZD4320] + Nc1ccn([C@@H]2O[C@H](CO)[C@@H](O)C2(F)F)c(=O)n1 [Gemcitabine] (first compound max 1 µM, 7x7, partner max 0.3 µM) | 0.31 | 0.589 | 0.597 | 0.89 | 0.846 | 1 | 0.187 | 0.557 | 0.954 | 0.894 | 0.476 | 0.837 | 0.972 | 0.9 | 0.493 | 0.993 | 0.984 | 0.524 | 0.44 | 0.952 | -0.0288 | 0.0103 | -0.0629 | -0.0293 | -0.0298 | 0.0843 | -0.0058 | -0.058 | -0.0788 | -0.0178 | 0.0546 | -0.0021 | -0.0194 | -0.0176 | -0.0618 | 0.0952 | 0.0034 | 0.0444 | 0.0222 | 0.0439
Cc1c2c(nn1C)CSCc1cc(n(C)n1)CSc1cc(c3ccccc3c1)OCCCc1c(C(=O)O)n(C)c3c-2c(Cl)ccc13 [AZD5991] + Nc1ccn([C@@H]2O[C@H](CO)[C@@H](O)C2(F)F)c(=O)n1 [Gemcitabine] (first compound max 1 µM, 7x7, partner max 0.3 µM) | 0.31 | 0.392 | 0.523 | 0.965 | 0.922 | 0.975 | 0.725 | 0.613 | 0.842 | 0.811 | 0.929 | 0.681 | 0.904 | 1 | 0.518 | 0.914 | 1 | 0.908 | 0.358 | 0.725 | -0.042 | -0.001 | -0.0059 | -0.0129 | 0.0092 | -0.012 | -0.0617 | -0.0677 | -0.0709 | -0.0389 | 0.058 | -0.0325 | 0.0089 | 0.0087 | -0.0611 | 0.0249 | 0.0245 | 0.07 | -0.0359 | -0.0319
